Reference: patent US20110152501A1, “Activatable Imaging Probes” (THE GENERAL HOSPITAL CORPORATION, priority 2001, published 2011)
Values belong to the molecule of their own block, whether it stands above or below them. Non-standard residues stand in square brackets, D forms with d. Primed or numbered codes have the meaning given here. No end group written: not given here. *: point of attachment. FITC = O=C1OC2(c3ccc(O)cc3Oc3cc(O)ccc32)c2ccc(NC(=S)*)cc21; Pip′ = not defined here

How the values were obtained:
Format in all cases: biochemical
thrombin = biological target: T1, thrombin (Homo sapiens, UniProt P00734); test: Enzymatic assay of peptide cleavage by thrombin (HPLC)
T1 construct: tested with purified thrombin in PBS buffer
Text: In contrast, there was no cleavage when the serine at P1′ position was replaced by a proline residue.

MMP-2 [1] = biological target: T2, MMP-2 (Homo sapiens, UniProt P08253); test: Inhibition of MMP-2 mediated probe activation by inhibitors; conditions: 1 mM
T2 construct: purchased Boehringer-Mannheim, Ind
T2 sequence (P08253 110-660): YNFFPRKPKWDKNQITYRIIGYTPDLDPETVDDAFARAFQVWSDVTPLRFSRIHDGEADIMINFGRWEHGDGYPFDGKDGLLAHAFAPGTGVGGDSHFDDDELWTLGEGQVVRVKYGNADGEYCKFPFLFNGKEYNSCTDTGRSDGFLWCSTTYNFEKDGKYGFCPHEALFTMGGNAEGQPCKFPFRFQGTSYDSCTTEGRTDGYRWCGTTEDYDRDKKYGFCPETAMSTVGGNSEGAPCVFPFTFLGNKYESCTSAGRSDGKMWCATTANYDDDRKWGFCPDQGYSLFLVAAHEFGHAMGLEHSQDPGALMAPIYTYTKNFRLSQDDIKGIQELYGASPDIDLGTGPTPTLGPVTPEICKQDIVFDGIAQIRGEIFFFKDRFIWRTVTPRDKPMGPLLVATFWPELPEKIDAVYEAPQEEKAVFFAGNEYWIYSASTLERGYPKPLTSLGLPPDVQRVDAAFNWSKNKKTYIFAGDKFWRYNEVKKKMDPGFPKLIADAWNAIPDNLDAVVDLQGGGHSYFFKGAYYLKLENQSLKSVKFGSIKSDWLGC
Method: Using 5 U of MMP-2 and 19 pmol of imaging probe, we performed a dose response study of mediated MMP inhibition up to 0.1 mM of inhibitor.
To determine the range of enzyme activation, a constant amount of imaging probe (26.6 pmol) was incubated with variable amounts of activated MMP-2 and fluorescence was determined after 24 hours. Inhibition experiments were performed by incubating 1 U of purified, activated MMP-2 with 19 pmol NIRF probe (220 pmol Cy 5.5) in the presence of different inhibitors, 1.10 phenanthroline (1 mM, Aldrich, Milwaukee, Wis.), a Zinc chelator, or a direct MMP-2 inhibitor.

MMP-2 [2] = biological target: T2, MMP-2; test: HPLC analysis of peptide substrates after incubation with MMP-2
Method: The synthesized probes contain a preferential MMP-2 peptide substrate. Two different peptide substrates were used in this study, an MMP-2 cleavable peptide ([…](FITC)C-NH2 (SEQ ID NO:10) (substrate sites are italicized)) and a scrambled control peptide. […] Although the latter control probe has a GVR leader sequence, it is too short to be recognized by MMP-2.
Characterization of probe. A number of experiments were conducted to characterize the peptide substrate and imaging probes. Initially we performed HPLC analysis of peptide and control substrates prior to and after incubation with 1 U of MMP-2. One unit is the activity that hydrolyzes 1 μg of type IV collagen within 1 hour using a commercially available assay (gelatinase 72 kD, Boehringer Mannheim, Indianapolis, Ind.). Reverse phase HPLC (Brownlee, Spheri-5, ODS, 30×4.6 mm), using 0.1% TFA and acetonitrile as elution buffers was performed (Rainin Instruments, Woburn, Mass.). […] The control probe contained the scrambled peptide. To determine the range of enzyme activation, a constant amount of imaging probe (26.6 pmol) was incubated with variable amounts of activated MMP-2 and fluorescence was determined after 24 hours. […]

purified thrombin = biological target: T3, purified thrombin (Homo sapiens, UniProt P00734); test: Probe activation with purified thrombin in PBS buffer, NIRF signal over time; conditions: thrombin added to solutions containing thrombin probe and hirudin, compared to hirudin-free solutions
T3 construct: tested with purified thrombin in PBS buffer
Method: The prepared probes were first tested with purified thrombin in PBS buffer as the NIRF signal was recorded over time. […] Following addition of thrombin, NIRF signal increased from 150 AU to 4100 AU within 20 minutes (27 fold increase). […] There was a clear dose response when the probe was incubated with different amounts of thrombin.

cleavage by thrombin (thrombin; HPLC): cleaved into two major products
Molecule: Gly-D-Phe-Pip-Arg-Ser-Gly-Gly-Gly-Gly-Lys(FITC)-Cys-NH2 (G[dF][Pip′]RSGGGGK(FITC)C-NH2) [C-terminal extended peptide]

stability against thrombin (thrombin; two hours following incubation with thrombin): remained intact
Molecule: Gly-D-Phe-Pip-Arg-Pro-Gly-Gly-Gly-Gly-Lys(FITC)-Cys-NH2

blocking of fluorescence activation (MMP-2 [1]): completely blocked
Molecule: c1cnc2c(c1)ccc1cccnc12 [1,10 phenanthroline]

cleavage by MMP-2 (MMP-2 [2]): cleavage of the former
Molecule: Gly-Pro-Leu-Gly-Val-Arg-Gly-Lys(FITC)-Cys-NH2 (GPLGVRGK(FITC)C-NH2; N-terminus assumed; SMILES CC(C)C[C@H](NC(=O)[C@@H]1CCCN1C(=O)CN)C(=O)NCC(=O)N[C@H](C(=O)N[C@@H](CCCNC(=N)N)C(=O)NCC(=O)N[C@@H](CCCCNC(=S)Nc1ccc2c(c1)C(=O)OC21c2ccc(O)cc2Oc2cc(O)ccc21)C(=O)N[C@@H](CS)C(N)=O)C(C)C)

effect on thrombin activation of the thrombin probe (purified thrombin): significantly less NIRF signal
Molecule: hirudin
